Reference: the NIST ThermoML archive (doi:10.1021/acs.jced.5b00242)
± gives the expanded uncertainty stated by the source.

Legend:
[1] = xn = mol fraction of the nth substance listed; details: 101 kPa, Liquid; for viscosity: Stabinger Viscometer; for mass density: Vibrating tube method
[2] = refractive index (Na D-line) (dimensionless); xn = mol fraction of the nth substance listed; details: 101 kPa, Liquid, Standard Abbe refractometry

CCn1cc[n+](C)c1.C[C@H](N)C(=O)[O-] [1-ethyl-3-methylimidazolium L-alaninate] + CCn1cc[n+](C)c1.N#C[C-](C#N)C#N
Details | mass density, [1] [kg/m3] | refractive index, [2] | viscosity, [1] [mPa·s]
293.15 K, x2 = 0 | 1126.3 ± 17 | 1.51366 ± 0.0011 | 382.06 ± 28
293.15 K, x2 = 0.2506 | 1113.7 ± 16 | 1.51476 ± 0.0015 | 146.57 ± 8.3
293.15 K, x2 = 0.5 | 1102.2 ± 16 | 1.51409 ± 0.00078 | 78.6 ± 2.4
293.15 K, x2 = 0.7499 | 1092.9 ± 15 | 1.51367 ± 0.00086 | 31.55 ± 2
298.15 K, x2 = 0 | 1123 ± 17 | 1.51223 ± 0.0011 | 263.98 ± 16
298.15 K, x2 = 0.2506 | 1110.4 ± 16 | 1.5133 ± 0.0015 | 107.2 ± 5.5
298.15 K, x2 = 0.5 | 1098.9 ± 16 | 1.51258 ± 0.00078 | 60.26 ± 1.6
298.15 K, x2 = 0.7499 | 1089.3 ± 15 | 1.5121 ± 0.00086 | 25.68 ± 1.6
303.15 K, x2 = 0 | 1119.8 ± 17 | 1.51081 ± 0.0011 | 187.79 ± 9.8
303.15 K, x2 = 0.2506 | 1107.1 ± 16 | 1.51184 ± 0.0015 | 80.47 ± 3.8
303.15 K, x2 = 0.5 | 1095.6 ± 16 | 1.51107 ± 0.00078 | 46.89 ± 1.3
303.15 K, x2 = 0.7499 | 1085.9 ± 15 | 1.51053 ± 0.00086 | 21.18 ± 1.3
308.15 K, x2 = 0 | 1116.6 ± 17 | 1.50937 ± 0.0011 | 137.47 ± 6.2
308.15 K, x2 = 0.2506 | 1104 ± 16 | 1.51038 ± 0.0015 | 61.83 ± 2.8
308.15 K, x2 = 0.5 | 1092.3 ± 16 | 1.5095 ± 0.00078 | 37.29 ± 1
308.15 K, x2 = 0.7499 | 1082.6 ± 15 | 1.50893 ± 0.00086 | 17.74 ± 1.1
313.15 K, x2 = 0 | 1113.5 ± 17 | 1.50793 ± 0.0011 | 103.54 ± 4.1
313.15 K, x2 = 0.2506 | 1100.8 ± 16 | 1.50888 ± 0.0015 | 49.16 ± 2.3
313.15 K, x2 = 0.5 | 1089.1 ± 16 | 1.50796 ± 0.00078 | 30.22 ± 0.84
313.15 K, x2 = 0.7499 | 1079.2 ± 15 | 1.50731 ± 0.00086 | 14.83 ± 0.92
318.15 K, x2 = 0 | 1110.5 ± 17 | 1.50651 ± 0.0011 | 79.34 ± 2.8
318.15 K, x2 = 0.2506 | 1097.8 ± 16 | 1.50736 ± 0.0015 | 38.96 ± 1.8
318.15 K, x2 = 0.5 | 1085.9 ± 16 | 1.50643 ± 0.00078 | 24.9 ± 0.69
318.15 K, x2 = 0.7499 | 1075.9 ± 15 | 1.50568 ± 0.00086 | 12.94 ± 0.8
323.15 K, x2 = 0 | 1107.5 ± 17 | 1.50505 ± 0.0011 | 62.21 ± 2
323.15 K, x2 = 0.2506 | 1094.6 ± 16 | 1.5059 ± 0.0015 | 31.75 ± 1.5
323.15 K, x2 = 0.5 | 1082.7 ± 15 | 1.50488 ± 0.00078 | 20.83 ± 0.58
323.15 K, x2 = 0.7499 | 1072.7 ± 15 | 1.50401 ± 0.00086 | 11.23 ± 0.7
328.15 K, x2 = 0 | 1104.4 ± 17 | 1.50358 ± 0.0011 | 49.69 ± 1.6
328.15 K, x2 = 0.2506 | 1091.5 ± 16 | 1.50436 ± 0.0015 | 26.27 ± 1.2
328.15 K, x2 = 0.5 | 1079.5 ± 15 | 1.50338 ± 0.00078 | 17.64 ± 0.49
328.15 K, x2 = 0.7499 | 1069.4 ± 15 | 1.50244 ± 0.00086 | 9.84 ± 0.61
333.15 K, x2 = 0 | 1101.3 ± 16 | 1.50217 ± 0.0011 | 40.5 ± 1.3
333.15 K, x2 = 0.2506 | 1088.4 ± 16 | 1.50293 ± 0.0015 | 22.29 ± 1
333.15 K, x2 = 0.5 | 1076.3 ± 15 | 1.50191 ± 0.00078 | 15.08 ± 0.42
333.15 K, x2 = 0.7499 | 1066.1 ± 15 | 1.50085 ± 0.00086 | 8.51 ± 0.53
338.15 K, x2 = 0 | 1098.3 ± 16 | 1.50074 ± 0.0011 | 33.22 ± 1.1
338.15 K, x2 = 0.2506 | 1085.3 ± 16 | 1.50148 ± 0.0015 | 18.7 ± 0.86
338.15 K, x2 = 0.5 | 1073.1 ± 15 | 1.50039 ± 0.00078 | 13.09 ± 0.36
338.15 K, x2 = 0.7499 | 1062.9 ± 15 | 1.49926 ± 0.00086 | 7.74 ± 0.48
343.15 K, x2 = 0 | 1095.2 ± 16 | 1.49932 ± 0.0011 | 27.72 ± 0.91
343.15 K, x2 = 0.2506 | 1082.2 ± 16 | 1.49997 ± 0.0015 | 16.04 ± 0.74
343.15 K, x2 = 0.5 | 1069.9 ± 15 | 1.49888 ± 0.00078 | 11.45 ± 0.32
343.15 K, x2 = 0.7499 | 1059.6 ± 15 | 1.49771 ± 0.00086 | 6.93 ± 0.43
348.15 K, x2 = 0 | 1092.1 ± 16 | 1.49795 ± 0.0011 | 23.38 ± 0.77
348.15 K, x2 = 0.2506 | 1079.1 ± 16 | 1.49851 ± 0.0015 | 13.89 ± 0.64
348.15 K, x2 = 0.5 | 1066.6 ± 15 | 1.49739 ± 0.00078 | 10.1 ± 0.28
348.15 K, x2 = 0.7499 | 1056.3 ± 15 | 1.49613 ± 0.00086 | 6.26 ± 0.39
353.15 K, x2 = 0 | 1088.9 ± 16 | 1.49656 ± 0.0011 | 20.03 ± 0.66
353.15 K, x2 = 0.2506 | 1075.9 ± 16 | 1.49704 ± 0.0015 | 12.28 ± 0.56
353.15 K, x2 = 0.5 | 1063.1 ± 15 | 1.49589 ± 0.00078 | 8.93 ± 0.25
353.15 K, x2 = 0.7499 | 1052.9 ± 15 | 1.49456 ± 0.00086 | 5.45 ± 0.34
